Results taken from patent publication US20240365785A1, “ACTIVE COMPOUND COMBINATIONS AND FUNGICIDE COMPOSITIONS COMPRISING THOSE” (Bayer Aktiengesellschaft, priority 2021, published 2024).

Key:
Format in all cases: cell-based
Details in all cases: alone
Botrytis cinerea = experiment: in vitro-Test with Botrytis cinerea
Cordana musae = experiment: in vitro-Test with Cordana musae
Colletotrichum coccodes = experiment: in vitro-Test with Colletotrichum coccodes
Alternaria alternata = experiment: in vitro-Test with Alternaria alternata
Fusarium culmorum = experiment: in vitro-Test with Fusarium culmorum
Method: Wells of 96-well microtiter plates are filled with 10 μl of a preparation of test compound or compound combination in methanol+emulsifier alkylaryl-polyglycol-ether. Thereafter, the solvent is evaporated in a hood. At the next step, into each well 100 μl of liquid potato dextrose medium is given, that has been amended with an appropriate concentration of spores or mycelium suspension of the test fungus.
With the aid of a photometer the extinction in all wells is measured at the wavelength of 620 nm.
The microtiter plates are incubated at 20° C. and 85% relative humidity. The inhibition of growth is determined again photometrically 3-5 days after the application. Efficacy is calculated in relation to the untreated control, 0% efficacy means fungal growth as high as in untreated control while 100% efficacy means no fungal growth is measured.

Diaporthe citri = experiment: in vitro-Test with Diaporthe citri

CCC(=O)Oc1c(OC)ccnc1C(=O)N[C@@H](C)C(=O)O[C@@H](C)[C@@H](C)c1ccccc1C [(3.017) Metarylpicoxamid, metarylpicoxamid, reference compound]
Efficacy % (Botrytis cinerea; 0.8 ppm): 0% | Efficacy % (Botrytis cinerea; 10 ppm): 20% | Efficacy % (Cordana musae; 0.08 ppm): 44% | Efficacy % (Colletotrichum coccodes; 0.08 ppm): 19% | Efficacy % (Colletotrichum coccodes; 0.4 ppm): 26% | Efficacy % (Alternaria alternata; 10 ppm): 50% | Efficacy % (Fusarium culmorum; 0.08 ppm): 10% | Efficacy % (Fusarium culmorum; 2 ppm): 0% | Efficacy % (Fusarium culmorum; 10 ppm): 4% | Efficacy % (Diaporthe citri; 2 ppm): 89% | Efficacy % (Diaporthe citri; 10 ppm): 89%

COC(=O)C(O)(Cn1cncn1)c1ccc(Oc2ccc(Cl)cc2)cc1Cl (centres unmarked) [(I-1), Methyl 2-[2-chloro-4-(4-chlorophenoxy)phenyl]-2-hydroxy-3-(1,2,4-triazol-1-yl)propanoate]
Efficacy % (Botrytis cinerea; 0.02 ppm): 1% | Efficacy % (Botrytis cinerea; 0.1 ppm): 0% | Efficacy % (Cordana musae; 0.02 ppm): 14% | Efficacy % (Cordana musae; 0.5 ppm): 54% | Efficacy % (Cordana musae; 2.5 ppm): 97% | Efficacy % (Colletotrichum coccodes; 0.02 ppm): 0% | Efficacy % (Colletotrichum coccodes; 0.1 ppm): 0% | Efficacy % (Colletotrichum coccodes; 2.5 ppm): 91% | Efficacy % (Alternaria alternata; 0.02 ppm): 3% | Efficacy % (Alternaria alternata; 0.1 ppm): 0% | Efficacy % (Alternaria alternata; 0.5 ppm): 18% | Efficacy % (Fusarium culmorum; 2.5 ppm): 25% | Efficacy % (Diaporthe citri; 0.02 ppm): 0% | Efficacy % (Diaporthe citri; 0.1 ppm): 0% | Efficacy % (Diaporthe citri; 2.5 ppm): 100%
